Entries after “also recorded” stand apart in the source; their conditions may differ. Like-named read-outs stand apart in the source and are kept apart here.
How the values were obtained:
hippocampal slices = test: Extracellular Aβ40/Aβ42 by sandwich ELISA in acute hippocampal slices stimulated by single spikes or spike bursts; type: cell-based, rat
CA3-CA1 connections [1] = test: fEPSP/EPSC recordings in CA3-CA1 connections of hippocampal slices; type: cell-based, rat
CA3-CA1 connections [2] = test: fEPSP recordings in CA3-CA1 connections of human hippocampal slices; type: cell-based; conditions: RS-baclofen 20 μM
Protocol: (§1) Human slices were subjected to 1 hour stimulations by single spikes or spike bursts as described for experiments in rodents herein above (each burst contains 5 APs, inter-spike-interval 10 ms, inter-burst interval 5 s) in ACSF in the presence of 50 μM AP-5 for blocking postsynaptic excitatory NMDA receptors. Following stimulation, [Aβ40]o and [Aβ42]o in ACSF were measured by sandwich ELISA. Extracellularly recorded field EPSPs (fEPSPs) were used to assess short-term synaptic plasticity.

human hippocampal slices = test: Extracellular Aβ40/Aβ42 by ELISA in human hippocampal slices, single spikes or spike bursts; type: cell-based; conditions: RS-baclofen 20 μM
Protocol: as §1

human cortical slices [3] = test: Extracellular Aβ40/Aβ42 by ELISA in human cortical slices, single spikes or spike bursts; type: cell-based; conditions: RS-baclofen 20 μM
Protocol: as §1

APP = test: Western blot of APP processing in APP/PS1 hippocampal slices; type: cell-based, mouse; conditions: APP/PS1 slices before and after pre-treatment with baclofen
From the text: Immunoblot Analysis. At the end of each stimulation, hippocampal slices were homogenized and prepared for the detection of full-length APP, soluble APP and APP-C terminal fragment (APP-CTF) by western blotting as described previously^18. Full length APP and soluble APP was probed using anti-APP 22C11 monoclonal antibody (Millipore, Temecula, Calif., 1:2000). In APP/PS1 slices, APP-bCTF was detected using 82E1 monoclonal antibody (IBL, Japan, 1:200). Both 22C11 and 82E1 probing were followed by goat anti-mouse HRP conjugated secondary antibody (Jackson ImmunoResearch, West Grove, Pa., 1:5000). APP-aCTF was detected using rabbit anti-APP-CTF antibody (Millipore, Temecula, Calif., 1:10,000) followed by goat anti-rabbit HRP conjugated secondary antibody (Jackson ImmunoResearch, West Grove, Pa., 1:5000). Following detection, blots were stripped with Restore™ Western Blot Stripping Buffer (Pierce, Thermo Scientific, Rockford, Ill.) and then re-probed with mouse anti-actin (SIGMA, Israel, 1:10,000) and HRP-conjugated goat anti-mouse (1:5000) antibodies as a loading control protein. All proteins were visualized by SuperSignal® West Pico Chemiluminescent (Pierce; Thermo Scientific, Rockford, Ill.). Densitometry was performed using the ImageJ Analysis software, and each band was normalized to its actin signal.

CFP-PS1-YFP = type: cell-based, rat
human cortical slices [4] = test: fEPSP recordings in human cortical slices; type: cell-based; conditions: RS-baclofen 20 μM
Protocol: as §1

[5] = tested on: APP/PS1 hippocampal slices; test: Extracellular Aβ40/Aβ42 by ELISA in APP/PS1 hippocampal slices, single spikes or spike bursts; type: cell-based, mouse
CA3-CA1 connections [6] = test: fEPSP recordings in CA3-CA1 connections of APP/PS1 hippocampal slices; type: cell-based, mouse
rat hippocampal cultures = type: cell-based
[7] = in vivo; cited from earlier work
[8] = baclofen 1 μM, 3 h, APP/PS1 slices
[9] = 20 mM gabazine, 1 h at 37° C., blocking GABAA receptors

In the case of `C[C@@H](NC(=O)c1cc(C(=O)N[C@@H](Cc2ccccc2)[C@H](O)CNC2CC2)cc(N(C)S(C)(=O)=O)c1)c1ccccc1` [BACE1 inhibitor IV], the “[Aβ40]o in pretreated slices” value (hippocampal slices) is reported as “negligible” and the “[Aβ42]o in pretreated slices” value (hippocampal slices) is reported as “negligible”.
In the case of `OC[C@H]1O[C@@H](n2cnc3c(NC4CCCC4)nc(Cl)nc32)[C@H](O)[C@@H]1O` [CCPA, 2-Chloro-N-cyclopentyladenosine], the basal synaptic transmission (CA3-CA1 connections [1]) is reported as “rescued”, the “burst/single ratio of fEPSP charge transfer per spike (QfEPSP)” value (shortened to “burst/single ratio … per spike (QfEPSP)”) (CA3-CA1 connections [1]) is reported as “rescued” and the “short-term facilitation (relative slopes of fEPSPs within the burst)” value (CA3-CA1 connections [1]) is reported as “rescued”. The “slope of linear fit of input-output relationship (stimulation amplitude vs slope of fEPSP)” value (CA3-CA1 connections [1]) was 0.49±0.03, the “Aβ40/42 during periods of high-frequency burst firing” value (shortened to “Aβ40/42 during periods”) (hippocampal slices) was “boosting” and the “Aβ40 pattern dependency (burst/single ratio)” value (hippocampal slices) was “rescued”. For the same compound, the Aβ42 burst/single ratio (hippocampal slices) was “unaltered”, the “[Aβ40]o during single spikes” value (hippocampal slices) was “decreased” and the “[Aβ40]o during spike bursts” value (hippocampal slices) was “increasing”. For the same compound, the “pattern dependency of the Aβ40/42 ratio” value (hippocampal slices) was “restored”.
For `C[C@H](NC[C@H](O)CP(=O)(O)CC1CCCCC1)c1ccc(Cl)c(Cl)c1` [CGP54626], the “burst/single ratio … per spike (QfEPSP)” value (CA3-CA1 connections [1]) was “reduced”, the “short-term synaptic facilitation during the burst” value (CA3-CA1 connections [1]) was “reduced” and the “slope of linear fit of input-output relationship (stimulation amplitude vs slope of fEPSP)” value (CA3-CA1 connections [1]) was 1.13±0.06. The “[Aβ40]o during single spikes” value (hippocampal slices) was “did not affect”, the “[Aβ40]o during spike bursts” value (hippocampal slices) was “reduced” and the “[Aβ42]o during either single spikes or bursts” value (hippocampal slices) was “did not affect”. For the same compound, the “difference between the Aβ40/42 ratio associated with single and burst patterns” value (hippocampal slices) was “abolished”, the “pattern dependency of Aβ40” value (hippocampal slices) was “reduced” and the “pattern dependency of the Aβ40/42 ratio” value (hippocampal slices) was “reduced”.
With `CC(=O)OCOC(=O)CN(CCOCCOCCN(CC(=O)OCOC(C)=O)CC(=O)OCOC(C)=O)CC(=O)OCOC(C)=O` [EGTA-AM] the “EPSCs evoked by single spikes reduced by” value (CA3-CA1 connections [1]) was 20%, the “burst/single ratio of EPSC charge transfer per spike (QEPSC)” value (CA3-CA1 connections [1]) was “lower” and the “synaptic facilitation of EPSCs reduced by” value (CA3-CA1 connections [1]) was 70%. The Aβ40/42 pattern dependency (hippocampal slices) was “abolished”, the “Aβ40/42 ratio associated with burst patterns” value (hippocampal slices) was “decreased” and the Aβ40 burst/single ratio (hippocampal slices) was “reduced”. For the same compound, the “[Aβ40]o during spike bursts” value (hippocampal slices) was “reduced”, the “[Aβ42]o during either single spikes or bursts” value (hippocampal slices) was “did not affect” and the “burst/single ratio of Aβ42” value (hippocampal slices) was “did not affect”.
With `NCC(CC(=O)O)c1ccc(Cl)cc1` (stereo not drawn) [baclofen] the basal synaptic transmission (CA3-CA1 connections [1]) was “rescued”, the “burst/single ratio … per spike (QfEPSP)” value (CA3-CA1 connections [1]) was “rescued” and the “short-term facilitation (relative slopes of fEPSPs within the burst)” value (CA3-CA1 connections [1]) was “rescued”. For the same compound, the “slope of linear fit of input-output relationship (stimulation amplitude vs slope of fEPSP)” value (CA3-CA1 connections [1]) was 0.77±0.02, the “short-term synaptic facilitation during the burst” value (CA3-CA1 connections [1]; 3 h pre-incubation, CGP54626 10 μM in ACSF, baclofen 1 μM in ↑Ca/Mg-slices, recordings in normal ACSF) was “rescued” and the total synaptic strength (CA3-CA1 connections [1]; pretreatment of hippocampal slices with baclofen for 3 h before electrical stimulation) was “did not alter”. The “short-term synaptic facilitation during the burst” value (CA3-CA1 connections [2]) was “increased”, the “Aβ40/42 ratio during burst pattern of stimulation” value (human hippocampal slices) was “increased” and the Aβ42 pattern dependency (human hippocampal slices) was “without affecting”. For the same compound, the “[Aβ42]o during either single- or burst stimulation pattern” value (human hippocampal slices) was “uniformly inhibited”, the “burst pattern sensitivity of Aβ40” value (human hippocampal slices) was “increased” and the “pattern dependency of the Aβ40/42” value (human hippocampal slices) was “induced”. The “[Aβ40]o” value (human hippocampal slices; stronger during single spikes) was “inhibited”, the Aβ42 pattern dependency (human cortical slices [3]) was “no effect” and the “burst pattern sensitivity of Aβ40” value (human cortical slices [3]) was “increased”. For the same compound, the “pattern dependency of the Aβ40/42” value (human cortical slices [3]) was “induced”, the “burst/single ratio of FL-APP” value (APP) was “no significant differences” and the “burst/single ratio of βCTF” value (APP) was “no significant differences”. For the same compound, the “FYFP/FCFP (FR) on changing stimulation pattern from single spikes to spike bursts” value (CFP-PS1-YFP) was “not affected”, the short-term synaptic depression (human cortical slices [4]) was “reduced” and the “Aβ40/42 ratio associated with burst patterns” value [5] was “increased”. The “[Aβ40]o during single spikes” value [5] was “did not affect”, the “[Aβ42]o during either single spikes or bursts” value [5] was “did not affect” and the “burst/single ratio of Aβ42” value [5] was “did not affect”. For the same compound, the “pattern dependency of the Aβ40/42 ratio” value [5] was “rescued”, the “reduction in the Aβ40 burst/single ratio” value [5] was “rescued” and the “[Aβ40]o during bursts” value [5, 8] was “increased”. The “burst/single ratio … per spike (QfEPSP)” value (CA3-CA1 connections [6]) was “reversed”, the “slope of linear fit of input-output relationship (stimulation amplitude vs slope of fEPSP)” value (CA3-CA1 connections [6]) was 0.95±0.06 and the “reduction in short-term synaptic facilitation by burst in APP/PS1 mice” value (CA3-CA1 connections [6]; [8]) was “reversed”. For the same compound, the “Aβ40/42 during periods” value (hippocampal slices) was “boosting”, the “Aβ40 pattern dependency (burst/single ratio)” value (hippocampal slices) was “rescued” and the Aβ42 burst/single ratio (hippocampal slices) was “unaltered”. For the same compound, the “[Aβ40]o during spike bursts” value (hippocampal slices) was “increasing; also recorded: increased”, the “[Aβ42]o during either single spikes or bursts” value (hippocampal slices) was “did not affect” and the “difference between the Aβ40/42 ratio associated with single and burst patterns” value (hippocampal slices) was “restored”. The “pattern dependency of the Aβ40/42 ratio” value (hippocampal slices) was “restored” and the “pattern dependency of Aβ40” value (hippocampal slices; 3 h pre-incubation, CGP54626 10 μM, baclofen 1 μM in ↑Ca/Mg-slices) was “rescued”.
In the case of `[Cd]` [cadmium], the synaptic transmission (CA3-CA1 connections [1]) is reported as “completely blocked”, the Aβ40/42 pattern dependency (hippocampal slices) is reported as “abolished” and the Aβ40/42 ratio (hippocampal slices) is reported as “decreased”. For the same compound, the Aβ40 burst/single ratio (hippocampal slices) was “reduced”, the “[Aβ40]o reduced by, during single spikes” value (hippocampal slices) was 67% and the “[Aβ40]o reduced by, during spike bursts” value (hippocampal slices) was 77%. The “[Aβ42]o at either stimulation pattern” value (hippocampal slices) was “did not alter” and the “burst/single ratio of Aβ42” value (hippocampal slices) was “did not affect”.
With `COc1ccc(-c2ccc(=N)n(CCCC(=O)O)n2)cc1` [gabazine] the “[Aβ40]o increased by” value (rat hippocampal cultures; [9]) was 93.5% and the “[Aβ42]o increased by” value (rat hippocampal cultures; [9]) was 103%.
In the case of `NC1=N[C@H](O)[C@H]2[C@H]3O[C@]4(O)O[C@@H]([C@@H](O)[C@@]2(N1)[C@@H]4O)[C@]3(O)CO` [tetrodotoxin], the “elimination rate of total Aβ” value [7] is given as “lack of TTX effect”, the “[Aβ40]o reduced by” value (rat hippocampal cultures) is given as 34% and the “[Aβ42]o reduced by” value (rat hippocampal cultures) is given as 31%. For the same compound, the “CFP-PS1-YFP FRET efficiency” value (CFP-PS1-YFP) was “did not change” and the “FYFP/FCFP (FR)” value (CFP-PS1-YFP) was “not affected”.
In the case of ω-conotoxin GVIA [ω-CgTx], the basal synaptic transmission (CA3-CA1 connections [1]) is reported as “rescued”, the “burst/single ratio … per spike (QfEPSP)” value (CA3-CA1 connections [1]) is reported as “rescued” and the “short-term facilitation (relative slopes of fEPSPs within the burst)” value (CA3-CA1 connections [1]) is reported as “rescued”. The “slope of linear fit of input-output relationship (stimulation amplitude vs slope of fEPSP)” value (CA3-CA1 connections [1]) was 0.82±0.03, the “Aβ40/42 during periods” value (hippocampal slices) was “boosting” and the “Aβ40 pattern dependency (burst/single ratio)” value (hippocampal slices) was “rescued”. For the same compound, the Aβ42 burst/single ratio (hippocampal slices) was “unaltered”, the “[Aβ40]o during single spikes” value (hippocampal slices) was “decreased” and the “[Aβ40]o during spike bursts” value (hippocampal slices) was “increasing”. The “pattern dependency of the Aβ40/42 ratio” value (hippocampal slices) was “restored”.

Source: patent publication US9192670B2, “Regulation of amyloid beta molecular composition for the treatment of alzheimer's disease” (Ramot at Tel-Aviv University Ltd., priority 2011, dated 2015)
